Laboratory results taken from patent publication EP2537923A1, “Method for activation of specific peripheral blood mononuclear cells” (Oncotyrol Center for Personalized Cancer Medicine GmbH, priority 2011, dated 2012).

System: human PBMCs
Assay: Stimulation of PBMCs with anti-CD1b antibody and/or IL-2, cytokines measured in culture supernatants
Type: cell-based
Conditions: PMB at 10 µg/ml (60 U/ml); anti-CD16 as Fc γ receptor blocking antibody
Source text: PBMCs are then separated from whole blood or from leukapheresis products. Any method for separating mononuclear cells may be used. For example, the Ficoll separation method, i.e., a Ficoll-Paque density gradient is frequently used. For this purpose LSM1077 Lymphocyte Separation Medium (PAA, Pasching, Austria) in combination with Leucosep (greiner bio-one, Frickenhausen, Germany) can be used for the optimal separation of PBMCs.
The whole PBMCs or the CD56-positive PBMCs obtained are resuspended preferably at cell numbers of 1.0-1.5 x 10^6/ml in a cell culture medium such as RPMI-1640 (Lonza, Basel, Switzerland), AIM-V (Invitrogen, Carlsbad, CA, USA) or CellGro SCGM (CellGenix, Freiburg, Germany). The cell culture medium may be further supplemented with autologous or clinical quality heterologous serum or plasma at 1-20%. There is no limitation for the culture vessels used, which may be a plate, laboratory dish, flask, bag typically used for cell cultivation.
An antibody directed against CDlb (clone B-B5 from Diaclone, Besancon, France or clone WM25 from ImmunoKontact via AMS Biotechnology, Lugano, Switzerland) is added to these cultures. […] Activation as detected by the BD FastImmune (BD Biosciences, San Jose, CA, USA) of NK cells and T cells (both αß T cells and γδ T cells) occurs already within the first 12 to 16 hours. […]

With polymyxin B [PMB] the “effect on IFN-γ production / response induced by CDlb antibodies” value was “failed to abolish”.
